We go through one compound from patent publication US11697850B2, “Polymorphism in the Apo(a) gene predict responsiveness to acetylsalicylic acid treatment” (Celera Corporation, priority 2007, dated 2023).

The experiment in a line: Women's Health Study (WHS): randomized trial of low dose aspirin vs placebo, incident cardiovascular events stratified by rs3798220 genotype or Lp(a) level. Conditions: for relative risk reduction of major vascular events with aspirin: aspirin 100 mg orally on alternate days vs placebo, 10-year follow-up. It is filed as in vivo, human. An excerpt: The genotype of this polymorphism was therefore determined among 26,274 initially healthy women from the Women's Health Study (WHS) who had been randomly allocated to low dose aspirin or placebo and then followed over a 10-year period for incident cardiovascular events (31). This setting afforded the opportunity for prospective assessment not only of rs3798220 association with Lp(a) levels and vascular risk, but also of an interaction between aspirin and genetic effects on risk. Although most of the study participants were Caucasian, there were sufficient numbers of non-Caucasian participants to address population-specific influences on associations between rs3798220 and Lp(a) levels, as have been found in previous comparisons of other apolipoprotein(a) variants among populations with different biogeographic ancestry (32-36).
Study Populations: The primary study population derived from the Women's Health Study (WHS), a randomized trial of aspirin (100 mg orally on alternate days) and placebo in the primary prevention of cardiovascular disease conducted among initially healthy women aged at least 45 at enrollment who were followed over a 10 year period (1, 2). At enrollment, participants provided baseline clinical and demographic information. 28,345 WHS participants provided blood for plasma and genetic analysis. Among these samples, baseline Lp(a) levels were measured with a turbidimetric assay that is not affected by the number of Kr IV type-2 repeats on the Hitachi 917 analyzer (Roche Diagnostics, Indianapolis, Ind.) (3). Baseline measurement of other lipid fractions, inflammation biomarkers, and other plasma components has been described previously (4). Total incident cardiovascular events adjudicated during the follow-up period included those typically associated with plaque rupture and vessel occlusion such as myocardial infarction (MI), ischemic stroke, and cardiovascular death, as well as those typically associated with progression of underlying atherosclerotic disease defined as revascularization by percutaneous transluminal coronary angioplasty (PTCA) or coronary artery bypass graft (CABG). Major incident cardiovascular events were defined as myocardial infarction, ischemic stroke, or cardiovascular death. In addition, the association between rs3798220 and plasma Lp(a) levels was evaluated in an independent group of 1058 Caucasian men who had participated in the Physicians Health Study (PHS) (5). Among these PHS participants, Lp(a) levels were determined with a standard clinical ELISA-based method (6).
Genotyping: Genotypes for rs3798220 in the WHS participants were determined by an oligonucleotide ligation procedure that combined PCR amplification of target sequences from 3 ng of genomic DNA with subsequent allele-specific oligonucleotide ligation (7). The ligation products of the two alleles were then separated by hybridization to product specific oligonucleotides, each coupled to spectrally distinct Luminex®100™ xMAP microspheres (Luminex, Austin, Tex.). The captured products were fluorescently labeled with streptavidin R-phycoerythrin (Prozyme, San Leandro, Calif.), sorted on the basis of microsphere spectrum, and detected by a Luminex®100™ instrument (8). Genotypes at rs3798220 in the PHS were determined with a fluorescence-based, allele specific, real-time DNA amplification method as described (ABI, Foster City) (9). For the WHS and PHS populations respectively, the fractions of samples with successful genotype determination were 96.3% and 97.8%. Of the 27,289 women with DNA samples for genotyping, full ascertainment for rs3798220 genotype, Lp(a) levels, age, and occurrence of incident cardiovascular events were available for 25,436. Of these, 24,320 were Caucasian, 468 were African-American, 282 were Asian American, 262 where Hispanic, 62 were Native American, and 42 had unknown ancestry.
Statistical methods: Deviations from Hardy-Weinberg equilibrium were evaluated using a log-likelihood ratio test. […]

Regarding `CC(=O)Oc1ccccc1C(=O)O` [aspirin, acetylsalicylic acid], the “relative risk reduction of major vascular events with aspirin” value reads like this: (Caucasian WHS women, non-carriers of rs3798220 minor allele (TT)) 9%; (Caucasian WHS women, rs3798220 heterozygotes) 59%. For the same compound, the “relative risk reduction of coronary revascularization with aspirin” value (Caucasian WHS women, rs3798220 heterozygotes, aspirin 100 mg on alternate days vs placebo) is on record as 36%. Moreover, the “effect of aspirin on relative risk of vascular events” value (Caucasian non-carriers of rs3798220 minor allele with Lp(a) above the 90th percentile (65.1 mg/dL)) is “reduced the relative risk of vascular events” and the “effect of aspirin on relative risk of vascular events” value (Caucasian non-carriers of rs3798220 minor allele with Lp(a) below the 90th percentile) is given as “minimal effect”. Moreover, the “relative risk reduction for the revascularization endpoint with aspirin” value (Caucasians with Lp(a) levels above the 90th percentile (65.1 mg/dL), aspirin vs placebo) was determined as 39%.
